The results in this text go back to patent US10947210B2 (priority 2015, dated 2021).

Molecules are shown by their SMILES. Where only a bound is given, the exact number is not on record here.

HCV RNA-dependent RNA polymerase (NS5B), sequence (P26663 2420-3010): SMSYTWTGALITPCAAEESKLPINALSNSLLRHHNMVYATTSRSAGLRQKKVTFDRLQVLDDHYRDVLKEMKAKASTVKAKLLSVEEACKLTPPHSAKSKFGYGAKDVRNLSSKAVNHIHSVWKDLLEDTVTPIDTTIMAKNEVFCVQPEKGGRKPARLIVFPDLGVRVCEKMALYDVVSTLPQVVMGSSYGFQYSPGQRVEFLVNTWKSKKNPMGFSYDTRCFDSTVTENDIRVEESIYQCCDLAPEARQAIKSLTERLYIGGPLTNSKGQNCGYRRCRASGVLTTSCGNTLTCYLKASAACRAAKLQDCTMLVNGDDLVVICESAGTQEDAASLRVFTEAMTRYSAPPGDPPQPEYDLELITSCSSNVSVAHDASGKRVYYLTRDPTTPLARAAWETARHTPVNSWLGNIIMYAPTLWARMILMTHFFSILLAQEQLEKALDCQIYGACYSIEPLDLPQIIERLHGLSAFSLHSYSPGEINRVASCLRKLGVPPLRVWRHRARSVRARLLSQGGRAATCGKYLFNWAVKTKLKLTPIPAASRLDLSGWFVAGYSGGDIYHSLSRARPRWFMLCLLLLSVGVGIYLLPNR

This test deals with HCV RNA-dependent RNA polymerase (NS5B) (Hepatitis C virus genotype 1b (isolate BK) (HCV), UniProt P26663). As to the kind of experiment: RNA-Dependent RNA HCV NS5B (polymerase) Assay and IC50 Determination. The test is classed as biochemical. Particulars: purified HCV NS5B polymerase, polyA:U16 substrate, 32P-UTP incorporation; read-out: IC50. In a few lines:
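Purified NS5B was incubated with 0.5 uM polyA:U16, 10 μM UTP plus ^32P-UTP in 50 mM Hepes-KOH pH 7.5, 5 mM MgCl2, 5 mM DTT, 2% glycerol and 0.01% Triton X-100. Inhibitor reactions ran 60 min at 37° C, and radiolabelled RNA product was quantified after filter capture. IC50 values were obtained from concentration series.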
Take `CCOC(=O)C(C)OCCOCCOCCN(c1cc2oc(-c3ccc(F)cc3)c(C(=O)NC)c2cc1C1CC1)S(C)(=O)=O` (stereo not shown) [Compound 30-2, 2-{2-[2-(2-{[5-Cyclopropyl-2-(4-fluoro-phenyl)-3-methylcarbamoyl-benzofuran-6-yl]-methanesulfonyl-amino}-ethoxy)-ethoxy]-ethoxy}-propionic acid ethyl ester]: the IC50 (commonly the concentration that gives 50% inhibition) is over 1000 nM. On to `CNC(=O)c1c(-c2ccc(F)cc2)oc2cc(N(CCCCCOCCCCC(=O)O)S(C)(=O)=O)c(C3CC3)cc12` [Compound 28-8A, 5-((5-(N-(5-cyclopropyl-2-(4-fluorophenyl)-3-(methylcarbamoyl)benzofuran-6-yl)-methylsulfonamido)-pentyl)-oxy)-pentanoic Acid], for which the IC50 was under 100 nM. The result for `CNC(=O)c1c(-c2ccc(F)cc2)oc2cc(N(CCOCCOCCOCCOCCOCCOCc3cccc(C(C)=O)c3)S(C)(=O)=O)c(C3CC3)cc12` [Compound 02-8E, 6-[(2-{2-[2-(2-{2-[2-(3-Acetyl-benzyloxy)-ethoxy]-ethoxy}-ethoxy)-ethoxy]-ethoxy}-ethyl)-methanesulfonyl-amino]-5-cyclopropyl-2-(4-fluoro-phenyl)-benzofuran-3-carboxylic Acid Methylamide] reads over 1000 nM; that for `CCOC(=O)c1cc(COCCOCCN(c2cc3oc(-c4ccc(F)cc4)c(C(=O)NC)c3cc2C2CC2)S(C)(=O)=O)ccc1F` [Compound 30-14, 5-[2-(2-{[5-Cyclopropyl-2-(4-fluoro-phenyl)-3-methylcarbamoyl-benzofuran-6-yl]-methanesulfonyl-amino}-ethoxy)-ethoxymethyl]-2-fluoro-benzoic acid ethyl ester], over 1000 nM. The result for `CNC(=O)c1c(-c2ccc(F)cc2)oc2cc(N(CC(=O)NCC(=O)NCc3cccc(C(C)=O)c3)S(C)(=O)=O)c(C3CC3)cc12` [Compound 30-6, 6-[({[(3-Acetyl-benzylcarbamoyl)-methyl]-carbamoyl}-methyl)-methanesulfonyl-amino]-5-cyclopropyl-2-(4-fluoro-phenyl)-benzofuran-3-carboxylic acid methylamide] reads over 1000 nM; that for `CNC(=O)c1c(-c2ccc(F)cc2)oc2cc(N(CCOCCOCCOCc3cccc(C(C)=O)c3)S(C)(=O)=O)c(C3CC3)cc12` [Compound 02-8B, 6-[(2-{2-[2-(3-Acetyl-benzyloxy)-ethoxy]-ethoxy}-ethyl)-methanesulfonyl-amino]-5-cyclopropyl-2-(4-fluoro-phenyl)-benzofuran-3-carboxylic Acid Methylamide], over 1000 nM. As for `CNC(=O)c1c(-c2ccc(F)cc2)oc2cc(N(CCOCCOCCCc3ccccc3C(=O)OC)S(C)(=O)=O)c(C3CC3)cc12` [Compound 12-6A, 2-{3-[2-(2-{[5-Cyclopropyl-2-(4-fluoro-phenyl)-3-methylcarbamoyl-benzofuran-6-yl]-methanesulfonyl-amino}-ethoxy)-ethoxy]-propyl}-benzoic Acid Methyl Ester], the IC50 lay within 100 to 1000 nM. For the compound `CNC(=O)c1c(-c2ccc(F)cc2)oc2cc(N(CCOCCOCc3ccc(C(C)=O)cc3)S(C)(=O)=O)c(C3CC3)cc12` [Compound 02-8F, 6-({2-[2-(4-Acetyl-benzyloxy)-ethoxy]-ethyl}-methanesulfonyl-amino)-5-cyclopropyl-2-(4-fluoro-phenyl)-benzofuran-3-carboxylic Acid Methylamide], the IC50 was over 1000 nM. The result for `CNC(=O)c1c(-c2ccc(F)cc2)oc2cc(N(CC(=O)NC3(C(=O)NCc4cccc(C(=O)C=C(O)C(=O)O)c4)CC3)S(C)(=O)=O)c(C3CC3)cc12` [Compound 09-14D, 4-[3-({[1-(2-{[5-Cyclopropyl-2-(4-fluoro-phenyl)-3-methylcarbamoyl-benzofuran-6-yl]-methanesulfonyl-amino}-acetylamino)-cyclopropanecarbonyl]-amino}-methyl)-phenyl]-2-hydroxy-4-oxo-but-2-enoic Acid] reads over 1000 nM; that for `CNC(=O)c1c(-c2ccc(F)cc2)oc2cc(N(CCOCCOCCOCCOCCOCc3cccc(C(C)=O)c3)S(C)(=O)=O)c(C3CC3)cc12` [Compound 02-8D, 6-({2-[2-(2-{2-[2-(3-Acetyl-benzyloxy)-ethoxy]-ethoxy}-ethoxy)-ethoxy]-ethyl}-methanesulfonyl-amino)-5-cyclopropyl-2-(4-fluoro-phenyl)-benzofuran-3-carboxylic Acid Methylamide], over 1000 nM; that for `CCOC(=O)c1ccccc1OCCOCCOCCN(c1cc2oc(-c3ccc(F)cc3)c(C(=O)NC)c2cc1C1CC1)S(C)(=O)=O` [Compound 14-6A, 2-{2-[2-(2-{[5-Cyclopropyl-2-(4-fluoro-phenyl)-3-methylcarbamoyl-benzofuran-6-yl]-methanesulfonyl-amino}-ethoxy)-ethoxy]-ethoxy}-benzoic Acid Ethyl Ester], 100 to 1000 nM.

`CNC(=O)c1c(-c2ccc(F)cc2)oc2cc(N(CCOCCOCCOCCOCc3ccc(C(=O)/C=C(\O)C(=O)O)cc3)S(C)(=O)=O)c(C3CC3)cc12` [Compound 02-10H, 4-[4-(2-{2-[2-(2-{[5-Cyclopropyl-2-(4-fluoro-phenyl)-3-methylcarbamoyl-benzofuran-6-yl]-methanesulfonyl-amino}-ethoxy)-ethoxy]-ethoxy}-ethoxymethyl)-phenyl]-2-hydroxy-4-oxo-but-2-enoic Acid]: the IC50 is over 1000 nM. The result for `CNC(=O)c1c(-c2ccc(F)cc2)oc2cc(N(CCOCCOCc3ccc(C(=O)OCSC)cc3)S(C)(=O)=O)c(C3CC3)cc12` [Compound 06-8B6, 4-[2-(2-{[5-Cyclopropyl-2-(4-fluoro-phenyl)-3-methylcarbamoyl-benzofuran-6-yl]-methanesulfonyl-amino}-ethoxy)-ethoxymethyl]-benzoic Acid Methylsulfanylmethyl Ester] reads 100 to 1000 nM; that for `CNC(=O)c1c(-c2ccc(F)cc2)oc2cc(N(CCOCCCCc3ccc(C(=O)OC)cc3)S(C)(=O)=O)c(C3CC3)cc12` [Compound 13-7A, 4-[4-(2-{[5-Cyclopropyl-2-(4-fluoro-phenyl)-3-methylcarbamoyl-benzofuran-6-yl]-methanesulfonyl-amino}-ethoxy)-butyl]-benzoic Acid Methyl Ester], 100 to 1000 nM; that for `CNC(=O)c1c(-c2ccc(F)cc2)oc2cc(N(CCOCCOCCOCCOCCOCc3ccc(C(C)=O)cc3)S(C)(=O)=O)c(C3CC3)cc12` [Compound 02-8I, 6-({2-[2-(2-{2-[2-(4-Acetyl-benzyloxy)-ethoxy]-ethoxy}-ethoxy)-ethoxy]-ethyl}-methanesulfonyl-amino)-5-cyclopropyl-2-(4-fluoro-phenyl)-benzofuran-3-carboxylic Acid Methylamide], over 1000 nM. The result for `CNC(=O)c1c(-c2ccc(F)cc2)oc2cc(N(CCOCCOCc3ccc(C(=O)OC)c([N+](=O)[O-])c3)S(C)(=O)=O)c(C3CC3)cc12` [Compound 29-7, 4-[2-(2-{[5-Cyclopropyl-2-(4-fluoro-phenyl)-3-methylcarbamoyl-benzofuran-6-yl]-methanesulfonyl-amino}-ethoxy)-ethoxymethyl]-2-nitro-benzoic Acid Methyl Ester] reads 100 to 1000 nM; that for `CNC(=O)c1c(-c2ccc(F)cc2)oc2cc(N(CCOCCOCc3ccc(C(=O)OC)c(N)c3)S(C)(=O)=O)c(C3CC3)cc12` [Compound 29-9, 2-Amino-4-[2-(2-{[5-cyclopropyl-2-(4-fluoro-phenyl)-3-methylcarbamoyl-benzofuran-6-yl]-methanesulfonyl-amino}-ethoxy)-ethoxymethyl]-benzoic Acid Methyl Ester], 100 to 1000 nM; that for `CNC(=O)c1c(-c2ccc(F)cc2)oc2cc(N(CCOCCOCCOCc3ccc(C(=O)/C=C(\O)C(=O)O)cc3)S(C)(=O)=O)c(C3CC3)cc12` [Compound 02-10G, 4-(4-{2-[2-(2-{[5-Cyclopropyl-2-(4-fluoro-phenyl)-3-methylcarbamoyl-benzofuran-6-yl]-methanesulfonyl-amino}-ethoxy)-ethoxy]-ethoxymethyl}-phenyl)-2-hydroxy-4-oxo-but-2-enoic Acid], over 1000 nM. The result for `CNC(=O)c1c(-c2ccc(F)cc2)oc2cc(N(CCOCCOCCc3cccc(C(=O)O)c3)S(C)(=O)=O)c(C3CC3)cc12` [Compound 11-6B, 3-{2-[2-(2-{[5-Cyclopropyl-2-(4-fluoro-phenyl)-3-methylcarbamoyl-benzofuran-6-yl]-methanesulfonyl-amino}-ethoxy)-ethoxy]-ethyl}-benzoic Acid] reads under 100 nM; that for `CCOC(=O)c1ccc(COCCOCCN(c2cc3oc(-c4ccc(F)cc4)c(C(=O)NC)c3cc2C2CC2)S(C)(=O)=O)cc1` [Compound 06-8B1, 4-[2-(2-{[5-Cyclopropyl-2-(4-fluoro-phenyl)-3-methylcarbamoyl-benzofuran-6-yl]-methanesulfonyl-amino}-ethoxy)-ethoxymethyl]-benzoic Acid Ethyl Ester], over 1000 nM.

Take `CNC(=O)c1c(-c2ccc(F)cc2)oc2cc(N(CC(=O)N(C)CC(=O)NCc3cccc(C(=O)C=C(O)C(=O)O)c3)S(C)(=O)=O)c(C3CC3)cc12` [Compound 09-14B, 4-[3-({2-[(2-{[5-Cyclopropyl-2-(4-fluoro-phenyl)-3-methylcarbamoyl-benzofuran-6-yl]-methanesulfonyl-amino}-acetyl)-methyl-amino]-acetylamino}-methyl)-phenyl]-2-hydroxy-4-oxo-but-2-enoic acid]: the IC50 was over 1000 nM. The result for `CCCCOC(=O)c1ccc(COCCOCCN(c2cc3oc(-c4ccc(F)cc4)c(C(=O)NC)c3cc2C2CC2)S(C)(=O)=O)cc1` [Compound 06-8B3, 4-[2-(2-{[5-Cyclopropyl-2-(4-fluoro-phenyl)-3-methylcarbamoyl-benzofuran-6-yl]-methanesulfonyl-amino}-ethoxy)-ethoxymethyl]-benzoic Acid Butyl Ester] reads 100 to 1000 nM.
